Among the data in US20230104936A1, “TRPML MODULATORS” (Casma Therapeutics, Inc., priority 2019, published 2023) are AC50 values, retold here.

Usually AC50 stands for the concentration at which the activity in the assay is half-maximal. The low end stands for activity at low concentration, the high end for activity only at high concentration.

One assay has as its system TFEB. The experiment in a line: TFEB nuclear translocation assay, HeLa wt cells. Conditions: 2 hrs compound treatment, Table 1 does not say HeLa wt or TRPML1 KO. Format: cell-based. The procedure: For the TFEB nuclear translocation assay, HeLa wt or HeLa TRPML1 KO cells were plated at 2700 cells/well into black-walled, 384-well Cell carrier Ultra tissue culture treated plates in complete media and incubated overnight. The next day, cells are treated for 2 hrs with compounds and incubated at 37° C. Cells were then fixed for 30 minutes at room temperature in 4% final PFA and washed five times with 90 μL PBS. PBS is aspirated from the wells and the cells are blocked with 7.5 μL blocking buffer (1:1 PBS/Odyssey block buffer containing 0.1% triton x-100 and 1% goat serum). After 30-60 minutes of block, 7.5 μL of primary anti-TFEB (rabbit) antibody is added for a final dilution of 1:200 antibody in 15 μL blocking buffer. Plates are incubated overnight at 4° C. The following day, plates are washed again into PBS, 90 μL with 5 washes, all PBS is aspirated from the wells and the cells are incubated for 1 hr in 1:1000 goat-anti rabbit Alexa 488 secondary antibody, also containing 10 μg/mL Hoechst 33342. After the 1 hr room temperature incubation, plates are washed a final time into PBS, sealed with foil and imaged with an automated epifluorescence microscopy (PerkinElmer Operetta CLS). Four different fields were imaged per well using ×20 magnification for DAPI and FITC filter sets. Images were quantified using PerkinElmer Harmony software, briefly: apply flatfield correction (basic/advanced) for input images. Use the Find Nuclei building block with channel set at Hoechst to find the nuclei. Use the Find cytoplasm building block with channel set to Alexa 488 to find the cytoplasm. Use select cell region with Channel set at Alexa 488 and region of interest as Nuclei and define outer border at 0 μm and inner at 45 μm to cover complete nuclei. Use select cell region with Channel set at Alexa 488 and region of interest as ring region and define outer border at −5 μm and inner at 0 μm to define a ring around the nucleus. Use the find calculate intensity parameter to calculate intensity of the nuclear region and the ring region. Define results as Number of nuclei and ratio of A/B where A is Intensity of Nuclei and B is intensity of the ring region.
The compound numbers correspond to the compound numbers above in Tables A or B. Compounds having an activity designated as “++++” provided an AC50 of ≤2.00 μM; compounds having an activity designated as “+++” provided an AC50 of 2.01-8.00 μM; compounds having an activity designated as “++” provided an AC50 of 8.01-9.99 μM; and compounds having an activity designated as “+” provided an AC50 of ≥10.00 μM.
In turn, `CC(c1cccc(F)c1N1CCC(CN2C[C@@H](C)O[C@@H](C)C2)CC1)S(=O)(=O)c1ccc(S(=O)(=O)C(F)F)cc1` (single isomer, unassigned) [Compound A-808, 4-((1-(2-(1-((4-((difluoromethyl)sulfonyl)phenyl)sulfonyl)ethyl)-6-fluorophenyl)piperidin-4-yl)methyl)-2,6-dimethylmorpholine] registered a concentration at half-maximal activity (AC50) not above 2000 nM.
Same read-out and setting: to `C[C@@H]1CN(CC2CCN(c3c(F)cccc3NS(=O)(=O)c3ccc(S(=N)(=O)N(C)C)cc3)CC2)C[C@H](C)O1` (single isomer, unassigned) [Compound A-811, Rel-N-(2-(4-((2,6-dimethylmorpholino)methyl)piperidin-1-yl)-3-fluorophenyl)-4-(N,N-dimethylsulfamidimidoyl)benzenesulfonamide] belongs not above 2000 nM; to `C[C@@H]1CN(CC2CCN(c3c(F)cccc3NS(=O)(=O)c3ccc(S(C)(=N)=O)cc3)CC2)C[C@H](C)O1` (single isomer, unassigned) [Compound A-846], 2010 to 8000 nM.
Same read-out and setting: the result for `C[C@@H]1CN(CC2CCN(c3c(F)cccc3NS(=O)(=O)c3ccc(S(C)(=N)=O)cc3)CC2)C[C@H](C)O1` (single isomer, unassigned) [Compound A-847] reads not below 10000 nM; that for `CC(c1cccc(F)c1N1CCC(CN2C[C@H]3C[C@@H](C2)O3)CC1)S(=O)(=O)c1ccc(S(=O)(=O)N(C)C)cc1` (single isomer, unassigned) [Compound A-849], 2010 to 8000 nM.
Same read-out and setting: to `CC(c1cccc(C#N)c1N1CCC(CN2C[C@@H](C)O[C@@H](C)C2)CC1)S(=O)(=O)c1ccc(S(=O)(=O)N(C)C)cc1` (single isomer, unassigned) [Compound A-854, 4-((1-(3-cyano-2-(4-((2,6-dimethylmorpholino)methyl)piperidin-1-yl)phenyl)ethyl)sulfonyl)-N,N-dimethylbenzenesulfonamide] belongs not above 2000 nM; to `CC(C1CCN(c2c(F)cccc2NS(=O)(=O)c2ccc(S(=N)(=O)N(C)C)cc2)CC1)N1C[C@@H](C)O[C@@H](C)C1` (single isomer, unassigned) [Compound A-871A], not above 2000 nM; to `CC(C1CCN(c2c(F)cccc2NS(=O)(=O)c2ccc(S(=N)(=O)N(C)C)cc2)CC1)N1C[C@@H](C)O[C@@H](C)C1` (single isomer, unassigned) [Compound A-871B], not above 2000 nM.

Staying with this assay, now noted: Homo sapiens, HeLa, 2 h, 2 hrs compound treatment, Table 1 does not say HeLa wt or TRPML1 KO.
Regarding `CN(C)S(=O)(=O)c1ccc(S(=O)(=O)Nc2ccccc2N2CCN([C@@H]3C[C@@H]4CC[C@H]3C4)CC2)cc1` (racemic) [Compound A-421, rac-N4-(2-{4-[(1R,2S,4S)-bicyclo[2.2.1]heptan-2-yl]piperazin-1-yl}phenyl)-N1,N1-dimethylbenzene-1,4-disulfonamide], the concentration at half-maximal activity (AC50) was not above 2000 nM.
The same measure, in the same setting: the result for `CN(C)S(=O)(=O)c1ccc(S(=O)(=O)Nc2ccccc2N2CCN(C(=O)[C@@H]3C[C@@H]4CC[C@H]3O4)CC2)cc1` (racemic) [Compound A-449, rac-N1,N1-dimethyl-N4-(2-{4-[(1R,2R,4S)-7-oxabicyclo[2.2.1]heptane-2-carbonyl]piperazin-1-yl}phenyl)benzene-1,4-disulfonamide] reads 2010 to 8000 nM; that for `CN(C)S(=O)(=O)c1ccc(S(=O)(=O)Nc2ccccc2N2CCN(C(=O)[C@@H]3C[C@H]3C(C)(F)F)CC2)cc1` (racemic) [Compound A-463, rac-N4-(2-{4-[(1R,2R)-2-(1,1-difluoroethyl)cyclopropanecarbonyl]piperazin-1-yl}phenyl)-N1,N1-dimethylbenzene-1,4-disulfonamide], 2010 to 8000 nM; that for `CN(C)S(=O)(=O)c1ccc(S(=O)(=O)Nc2ccccc2N2CCN(C(=O)[C@@]34CCC[C@@H]3C4)CC2)cc1` (racemic) [Compound A-477, rac-N4-(2-{4-[(1R,5R)-bicyclo[3.1.0]hexane-1-carbonyl]piperazin-1-yl}phenyl)-N1,N1-dimethylbenzene-1,4-disulfonamide], 2010 to 8000 nM.
Still for that read-out and setting: to `C[C@H]1COC[C@H](C)N1CC1CCN(c2c(F)cccc2NS(=O)(=O)c2ccc(S(=O)(=O)N(C)C)cc2)CC1` (racemic) [Compound A-763, N4-(2-{4-[(3,5-dimethylmorpholin-4-yl)methyl]piperidin-1-yl}-3-fluorophenyl)-N1,N1-dimethylbenzene-1,4-disulfonamide] belongs not above 2000 nM; to `C[C@@H]1C[C@@]2(CCN1c1ccccc1NS(=O)(=O)c1ccc(S(=O)(=O)N(C)C)cc1)COC(C)(C)C2` (racemic) [Compound A-799, N1,N1-dimethyl-N4-(2-((5R,7R)-3,3,7-trimethyl-2-oxa-8-azaspiro[4.5]decan-8-yl)phenyl)benzene-1,4-disulfonamide], not above 2000 nM; to `C[C@H]1CN(CC2CCN(c3c(F)cccc3NS(=O)(=O)c3ccc(S(=O)(=O)N(C)C)cc3)CC2)C[C@H](C)O1` (racemic) [Compound A-843, rel-N1-(2-(4-((2,6-dimethylmorpholino)methyl)piperidin-1-yl)-3-fluorophenyl)-N4,N4-dimethylbenzene-1,4-disulfonamide], not above 2000 nM.
Same read-out and setting: the result for `C[C@H]1COC[C@H](C)N1CC1CCN(c2c(F)cccc2NS(=O)(=O)c2ccc(S(C)(=O)=O)cc2)CC1` (relative stereo) [Compound A-838, trans-N-(2-(4-((3,5-dimethylmorpholino)methyl)piperidin-1-yl)-3-fluorophenyl)-4-(methylsulfonyl)benzenesulfonamide] reads not above 2000 nM; that for `C[C@H]1COC[C@H](C)N1C[C@H]1CCN(c2c(F)cccc2NS(=O)(=O)c2ccc(S(=O)(=O)N(C)C)cc2)C1` (relative stereo) [Compound A-896, N4-{2-[(3R)-3-{[3,5-dimethylmorpholin-4-yl]methyl}pyrrolidin-1-yl]-3-fluorophenyl}-N1,N1-dimethylbenzene-1,4-disulfonamide], not above 2000 nM; that for `C[C@@H]1COC[C@@H](C)N1C[C@H]1CCN(c2c(F)cccc2NS(=O)(=O)c2ccc(S(=O)(=O)N(C)C)cc2)C1` (relative stereo) [Compound A-897, N4-{2-[(3R)-3-{[3,5-dimethylmorpholin-4-yl]methyl}pyrrolidin-1-yl]-3-fluorophenyl}-N1,N1-dimethylbenzene-1,4-disulfonamide], not above 2000 nM.
For `CC(c1cccc(F)c1N1CCC(CN2C[C@@H](C)O[C@@H](C)C2)CC1)S(=O)(=O)c1ccc(S(=O)(=O)C(F)F)cc1` (single isomer, unassigned) [Compound A-807, 4-((1-(2-(1-((4-((difluoromethyl)sulfonyl)phenyl)sulfonyl)ethyl)-6-fluorophenyl)piperidin-4-yl)methyl)-2,6-dimethylmorpholine], the AC50 is not above 2000 nM.
On to `C[C@@H]1CN(CC2CCN(c3c(F)cccc3NS(=O)(=O)c3ccc(S(=N)(=O)N(C)C)cc3)CC2)C[C@H](C)O1` (single isomer, unassigned) [Compound A-810, Rel-N-(2-(4-((2,6-dimethylmorpholino)methyl)piperidin-1-yl)-3-fluorophenyl)-4-(N,N-dimethylsulfamidimidoyl)benzenesulfonamide], for which the AC50 is not above 2000 nM.
`CC(c1cccc(F)c1N1CCC(CN2C[C@@H](C)O[C@@H](C)C2)CC1)S(=O)(=O)c1ccc2c(c1)CCC2` (single isomer, unassigned) [Compound A-828] displayed a half-maximal activity concentration (AC50) not above 2000 nM.
Still for that read-out and setting: the result for `C[C@H]1COC[C@H](C)N1CC1CCN(c2c(F)cccc2NS(=O)(=O)c2ccc(S(=N)(=O)N(C)C)cc2)CC1` (single isomer, unassigned) [Compound A-833] reads not above 2000 nM; that for `C[C@H]1COC[C@H](C)N1CC1CCN(c2c(F)cccc2NS(=O)(=O)c2ccc(S(=N)(=O)N(C)C)cc2)CC1` (single isomer, unassigned) [Compound A-834], not above 2000 nM; that for `CC(c1cccc(C#N)c1N1CCC(CN2C[C@@H](C)O[C@@H](C)C2)CC1)S(=O)(=O)c1ccc(S(=O)(=O)N(C)C)cc1` (single isomer, unassigned) [Compound A-845, 4-((1-(3-cyano-2-(4-((2,6-dimethylmorpholino)methyl)piperidin-1-yl)phenyl)ethyl)sulfonyl)-N,N-dimethylbenzenesulfonamide], 2010 to 8000 nM.
`CC(c1cccc(F)c1N1CCC(CN2C[C@H]3C[C@@H](C2)O3)CC1)S(=O)(=O)c1ccc(S(=O)(=O)N(C)C)cc1` (single isomer, unassigned) [Compound A-848] came in with a concentration at half-maximal activity (AC50) not above 2000 nM.
